Measurements reported in ChEMBL document CHEMBL1141841, “Biotransformation of the trichoderma metabolite 6-n-pentyl-2H-pyran-2-one (6PAP) by selected fungal isolates” (J Nat Prod, 1999).
The source made the active and inactive calls. No cut-off for these calls is given here.

Test system: Botrytis cinerea
Assay: Antimicrobial activity against Botrytis cinerea by spore germination assay
Format: functional, organism-based

SMILES	Activity
CC(O)CCCc1cccc(=O)o1 (stereo not given)	inactive
O=c1cccc(CCCCCO)o1	inactive
O=C(O)CCc1cccc(=O)o1	inactive
O=C(O)CCCCc1cccc(=O)o1	inactive
CCCCCc1cccc(=O)o1	Active
